US9833497B2, “Human originated EGF domain proteins and use of the same” (CHENGDU SOURCEBIO LIMITED-LIABILITY COMPANY, priority 2013, dated 2017)

What was measured:
Format in all cases: cell-based
Klebsiella pneumonia = test: MIC against Gram-negative bacteria: Klebsiella pneumonia; details: 5×10^5 CFU/mL
Outline: (§1)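 The recombinant human-originated EGF domain proteins were serially diluted two-fold against bacteria at 5×10^5 CFU/mL in LB medium. After shaken incubation at 37° C, the lowest concentration with no bacterial growth was recorded as the MIC.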

Moraxella catarrhalis = test: MIC against Gram-negative bacteria: Moraxella catarrhalis; details: 5×10^5 CFU/mL
Outline: as §1

E. coli BL21 = test: MIC against Gram-negative bacteria: E. coli BL21; details: 5×10^5 CFU/mL
Outline: as §1

Proteus mirabilis = test: MIC against Gram-negative bacteria: Proteus mirabilis; details: 5×10^5 CFU/mL
Outline: as §1

Pseudomonas aeruginosa = test: MIC against Gram-negative bacteria: Pseudomonas aeruginosa; details: 5×10^5 CFU/mL
Outline: as §1

Aeromonas hydrophila = test: MIC against Gram-negative bacteria: Aeromonas hydrophila; details: 5×10^5 CFU/mL
Outline: as §1

Serratia marcescens = test: MIC against Gram-negative bacteria: Serratia marcescens; details: 5×10^5 CFU/mL
Outline: as §1

Proteus vulgaris = test: MIC against Gram-negative bacteria: Proteus vulgaris; details: 5×10^5 CFU/mL
Outline: as §1

Enterobacter cloacae = test: MIC against Gram-negative bacteria: Enterobacter cloacae; details: 5×10^5 CFU/mL
Outline: as §1

E. coli DH5α = test: Antibacterial activity: MIC and growth curve against E. coli DH5α in 96-well plate; details: minimal inhibitory concentration against E. coli DH5α; 96-well plate, 5×10^5 CFU/mL, 37° C., judged after 8 h
Outline: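 MIC taken as lowest protein level with no bacterial growth, tracked by A600 every 30 min during 37 °C, 175 rpm culture. Two-fold protein series 50-12.5 μg/mL final, triplicate wells, against 5×10^5 CFU/mL of LB-washed mid-log cells.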

Citrobacter diversus = test: MIC against Gram-negative bacteria: Citrobacter diversus; details: 5×10^5 CFU/mL
Outline: as §1

[1] = Klebsiella pneumonia, 96-well plate, 37° C., 10 h
[2] = Moraxella catarrhalis, 96-well plate, 37° C., 10 h
[3] = Proteus mirabilis, 96-well plate, 37° C., 10 h
[4] = Pseudomonas aeruginosa, 96-well plate, 37° C., 10 h
[5] = Aeromonas hydrophila, 96-well plate, 37° C., 10 h
[6] = Serratia marcescens, 96-well plate, 37° C., 10 h
[7] = Proteus vulgaris, 96-well plate, 37° C., 10 h
[8] = Enterobacter cloacae, 96-well plate, 37° C., 10 h
[9] = Citrobacter diversus, 96-well plate, 37° C., 10 h
[10] = K. pneumonia, 10 h cultivation at 37° C.
[11] = M. catarrhalis, 10 h cultivation at 37° C.
[12] = P. mirabilis, 10 h cultivation at 37° C.
[13] = P. aeruginosa, 10 h cultivation at 37° C.
[14] = A. hydrophila, 10 h cultivation at 37° C.
[15] = S. marcescens, 10 h cultivation at 37° C.
[16] = P. vulgaris, 10 h cultivation at 37° C.
[17] = E. cloacae, 10 h cultivation at 37° C.
[18] = C. diversus, 10 h cultivation at 37° C.

PRT22 (WCEDNGGCEQICTSRVDGPLCSCVTGTLQEDGKSCR; listed as Homo sapiens)
MIC (μg/mL) K. pneumonia (Klebsiella pneumonia; [1]): 12.5 µg/mL | MIC (μg/mL) M. catarrhalis (Moraxella catarrhalis; [2]): 25 µg/mL | MIC (μg/mL) E. coli BL21 (E. coli BL21; 96-well plate, 37° C., 10 h): 50 µg/mL | MIC (μg/mL) P. mirabilis (Proteus mirabilis; [3]): 12.5 µg/mL | MIC (μg/mL) P. aeruginosa (Pseudomonas aeruginosa; [4]): 25 µg/mL | MIC (μg/mL) A. hydrophila (Aeromonas hydrophila; [5]): 25 µg/mL | MIC (μg/mL) S. marcescens (Serratia marcescens; [6]): 25 µg/mL | MIC (μg/mL) P. vulgaris (Proteus vulgaris; [7]): 12.5 µg/mL | MIC (μg/mL) E. cloacae (Enterobacter cloacae; [8]): 12.5 µg/mL | MIC (E. coli DH5α): 50 µg/mL | MIC (μg/mL) C. diversus (Citrobacter diversus; [9]): 12.5 µg/mL

PRT594 (CACNNNIDVTDPESCSRVTGECLRCLHNTQGANCQLCKPGHYGSALNQTCRR; listed as Homo sapiens)
MIC K. pneumonia (Klebsiella pneumonia; 96-well plate, 37° C., 10 h): 12.5 µg/mL | MIC M. catarrhalis (Moraxella catarrhalis; 96-well plate, 37° C., 10 h): 12.5 µg/mL | MIC E. coli BL21 (E. coli BL21; 96-well plate, 37° C., 10 h): 25 µg/mL | MIC P. mirabilis (Proteus mirabilis; 96-well plate, 37° C., 10 h): 50 µg/mL | MIC P. aeruginosa (Pseudomonas aeruginosa; 96-well plate, 37° C., 10 h): 50 µg/mL | MIC A. hydrophila (Aeromonas hydrophila; 96-well plate, 37° C., 10 h): 12.5 µg/mL | MIC S. marcescens (Serratia marcescens; 96-well plate, 37° C., 10 h): 50 µg/mL | MIC P. vulgaris (Proteus vulgaris; 96-well plate, 37° C., 10 h): 12.5 µg/mL | MIC E. cloacae (Enterobacter cloacae; 96-well plate, 37° C., 10 h): 50 µg/mL | MIC (E. coli DH5α): 12.5 µg/mL | MIC C. diversus (Citrobacter diversus; 96-well plate, 37° C., 10 h): 50 µg/mL

PRT1221 (DINECLQSPCKNGAICQNFPGSFNCVCKTGYTGKMCE; listed as Homo sapiens)
MIC against K. pneumonia (Klebsiella pneumonia; [1]): 25 µg/mL | MIC against M. catarrhalis (Moraxella catarrhalis; [2]): 50 µg/mL | MIC against E. coli BL21 (E. coli BL21; 96-well plate, 37° C., 10 h): 12.5 µg/mL | MIC against P. mirabilis (Proteus mirabilis; [3]): 25 µg/mL | MIC against P. aeruginosa (Pseudomonas aeruginosa; [4]): 25 µg/mL | MIC against A. hydrophila (Aeromonas hydrophila; [5]): 25 µg/mL | MIC against S. marcescens (Serratia marcescens; [6]): 50 µg/mL | MIC against P. vulgaris (Proteus vulgaris; [7]): 12.5 µg/mL | MIC against E. cloacae (Enterobacter cloacae; [8]): 50 µg/mL | MIC (E. coli DH5α): 25 µg/mL | MIC against C. diversus (Citrobacter diversus; [9]): 12.5 µg/mL

PRT779 (VSPCSRGYCDHGGQCQHLPSGPRCSCVSFSIYTAWGEHCE; listed as Homo sapiens)
MIC (μg/mL) K. pneumonia (Klebsiella pneumonia; [10]): 12.5 µg/mL | MIC (μg/mL) M. catarrhalis (Moraxella catarrhalis; [11]): 12.5 µg/mL | MIC (μg/mL) E. coli BL21 (E. coli BL21; 10 h cultivation at 37° C.): 12.5 µg/mL | MIC (μg/mL) P. mirabilis (Proteus mirabilis; [12]): 50 µg/mL | MIC (μg/mL) P. aeruginosa (Pseudomonas aeruginosa; [13]): 50 µg/mL | MIC (μg/mL) A. hydrophila (Aeromonas hydrophila; [14]): 12.5 µg/mL | MIC (μg/mL) S. marcescens (Serratia marcescens; [15]): 50 µg/mL | MIC (μg/mL) P. vulgaris (Proteus vulgaris; [16]): 12.5 µg/mL | MIC (μg/mL) E. cloacae (Enterobacter cloacae; [17]): 50 µg/mL | MIC (E. coli DH5α): 12.5 µg/mL | MIC (μg/mL) C. diversus (Citrobacter diversus; [18]): 50 µg/mL

PRT5 (DGDQCETSPCQNQGKCKDGLGEYTCTCLEGFEGKNCE; listed as Homo sapiens)
MIC (μg/mL) K. pneumonia (Klebsiella pneumonia; [1]): 25 µg/mL | MIC (μg/mL) M. catarrhalis (Moraxella catarrhalis; [2]): 25 µg/mL | MIC (μg/mL) E. coli BL21 (E. coli BL21; 96-well plate, 37° C., 10 h): 12.5 µg/mL | MIC (μg/mL) P. mirabilis (Proteus mirabilis; [3]): 12.5 µg/mL | MIC (μg/mL) P. aeruginosa (Pseudomonas aeruginosa; [4]): 25 µg/mL | MIC (μg/mL) A. hydrophila (Aeromonas hydrophila; [5]): 12.5 µg/mL | MIC (μg/mL) S. marcescens (Serratia marcescens; [6]): 25 µg/mL | MIC (μg/mL) P. vulgaris (Proteus vulgaris; [7]): 12.5 µg/mL | MIC (μg/mL) E. cloacae (Enterobacter cloacae; [8]): 25 µg/mL | MIC (E. coli DH5α): 12.5 µg/mL | MIC (μg/mL) C. diversus (Citrobacter diversus; [9]): 25 µg/mL

PRT257 (CTDGHRGGCSEHANCLSTGLNTRRCECHAGYVGDGLQC; listed as Homo sapiens)
MIC (μg/mL) K. pneumonia (Klebsiella pneumonia; [10]): 25 µg/mL | MIC (μg/mL) M. catarrhalis (Moraxella catarrhalis; [11]): 25 µg/mL | MIC (μg/mL) E. coli BL21 (E. coli BL21; 10 h cultivation at 37° C.): 25 µg/mL | MIC (μg/mL) P. mirabilis (Proteus mirabilis; [12]): 12.5 µg/mL | MIC (μg/mL) P. aeruginosa (Pseudomonas aeruginosa; [13]): 12.5 µg/mL | MIC (μg/mL) A. hydrophila (Aeromonas hydrophila; [14]): 25 µg/mL | MIC (μg/mL) S. marcescens (Serratia marcescens; [15]): 12.5 µg/mL | MIC (μg/mL) P. vulgaris (Proteus vulgaris; [16]): 12.5 µg/mL | MIC (μg/mL) E. cloacae (Enterobacter cloacae; [17]): 12.5 µg/mL | MIC (E. coli DH5α): 12.5 µg/mL | MIC (μg/mL) C. diversus (Citrobacter diversus; [18]): 12.5 µg/mL

PRT1306 (CSLLCLPKANNSRSCRCPEDVSSSVLPSGDLMCDCPQGYQLKNNTCV; listed as Homo sapiens)
MIC against K. pneumonia (Klebsiella pneumonia; [1]): 50 µg/mL | MIC against M. catarrhalis (Moraxella catarrhalis; [2]): 25 µg/mL | MIC against E. coli BL21 (E. coli BL21; 96-well plate, 37° C., 10 h): 50 µg/mL | MIC against P. mirabilis (Proteus mirabilis; [3]): 12.5 µg/mL | MIC against P. aeruginosa (Pseudomonas aeruginosa; [4]): 12.5 µg/mL | MIC against A. hydrophila (Aeromonas hydrophila; [5]): 25 µg/mL | MIC against S. marcescens (Serratia marcescens; [6]): 50 µg/mL | MIC against P. vulgaris (Proteus vulgaris; [7]): 25 µg/mL | MIC against E. cloacae (Enterobacter cloacae; [8]): 12.5 µg/mL | MIC (E. coli DH5α): 25 µg/mL | MIC against C. diversus (Citrobacter diversus; [9]): 50 µg/mL
